According to patent publication US20250026746A1, “ENHANCERS OF PARTICULATE GUANYLYL CYCLASE RECEPTOR A” (Mayo Foundation for Medical Education and Research, priority 2021, published 2025):

Tests used:
[1] = test system: spontaneously hypertensive rats; assay: In vivo actions in spontaneously hypertensive rats (cGMP, blood pressure, renal function); parameters: species or system rat; conditions: acetate salt, 10 mg/kg single IV bolus, SHR; for plasma cGMP: 15 minutes after administration; for diastolic blood pressure: 60 minutes post-bolus; for diastolic blood pressure / urinary sodium excretion / urinary volume / systolic blood pressure: vs vehicle (and Compound 2); for urinary sodium excretion / urinary volume: post-bolus; for systolic blood pressure: throughout 60 minutes post bolus
Description: The cGMP generating, blood pressure lowering and renal enhancing actions of a single intravenous (IV) bolus dose of Compound 3, Compound 1 or Compound 2 acetate salt (n=4/small molecule form: 10 mg/kg) or Vehicle (n=5: 15% DMSO/60% PEG300/25% PBS) in spontaneously hypertensive rats (SHRs; male: 12 weeks old) were investigated. Studies were performed in accordance with the Animal Welfare Act and with approval of the Mayo Clinic Institutional Animal Care and Use Committee.
SHRs were administered Inactin (100 mg/kg: IP) to induce anesthesia and then maintained with additional Inactin (100 mg/kg: IP), as required. Once adequate anesthesia was achieved, the anesthetized SHRs were placed on a heating table set at 37° C. to maintain body temperature for the entire study and then were subjected to vessel and bladder cannulation. A polyethylene (PE)-50 tube catheter was placed into the jugular vein for saline, Compound 3, Compound 1, Compound 2 or vehicle IV administration. The carotid artery was cannulated with a PE-50 tube catheter for blood pressure monitoring (Sonometrics, London, Ontario, Canada) and blood sampling/collection. The bladder was accessed and cannulated with a PE-90 tube catheter for passive urine collection. After completion of the procedural set up, a 45-minute equilibration period was performed that included continuous IV saline infusion, a 30-minute baseline (pre-bolus) urine collection and a single baseline blood sample at the end of the 30-minute baseline urine collection. […] BP was monitored and recorded, beginning prior to IV bolus administration (0-minute post-bolus) and then at 15, 30, 45 and 60 minutes post-bolus. At the end of the 60-minute clearance, the anesthetized rats were euthanized by exsanguination and all blood and urine samples were stored at −80° C. until assayed. Plasma and urinary cGMP levels were measured using a cGMP ELISA kit (Enzo Life Sciences, Farmingdale, NY) as instructed by the manufacturer. Urinary sodium concentrations were determined with an electrolyte analyzer (Diamond Diagnostics Inc., Holliston, MA).

human GC-A = target: T1, human GC-A (Homo sapiens, UniProt P16066); assay: cGMP levels (ELISA) in HEK293 cells overexpressing human GC-A; format: cell-based; conditions: acetate salt; for cGMP generation in the presence of ANP: ANP (10^−10 M)
T1 construct: host or cells: HEK293
T1 sequence (P16066 33-1061): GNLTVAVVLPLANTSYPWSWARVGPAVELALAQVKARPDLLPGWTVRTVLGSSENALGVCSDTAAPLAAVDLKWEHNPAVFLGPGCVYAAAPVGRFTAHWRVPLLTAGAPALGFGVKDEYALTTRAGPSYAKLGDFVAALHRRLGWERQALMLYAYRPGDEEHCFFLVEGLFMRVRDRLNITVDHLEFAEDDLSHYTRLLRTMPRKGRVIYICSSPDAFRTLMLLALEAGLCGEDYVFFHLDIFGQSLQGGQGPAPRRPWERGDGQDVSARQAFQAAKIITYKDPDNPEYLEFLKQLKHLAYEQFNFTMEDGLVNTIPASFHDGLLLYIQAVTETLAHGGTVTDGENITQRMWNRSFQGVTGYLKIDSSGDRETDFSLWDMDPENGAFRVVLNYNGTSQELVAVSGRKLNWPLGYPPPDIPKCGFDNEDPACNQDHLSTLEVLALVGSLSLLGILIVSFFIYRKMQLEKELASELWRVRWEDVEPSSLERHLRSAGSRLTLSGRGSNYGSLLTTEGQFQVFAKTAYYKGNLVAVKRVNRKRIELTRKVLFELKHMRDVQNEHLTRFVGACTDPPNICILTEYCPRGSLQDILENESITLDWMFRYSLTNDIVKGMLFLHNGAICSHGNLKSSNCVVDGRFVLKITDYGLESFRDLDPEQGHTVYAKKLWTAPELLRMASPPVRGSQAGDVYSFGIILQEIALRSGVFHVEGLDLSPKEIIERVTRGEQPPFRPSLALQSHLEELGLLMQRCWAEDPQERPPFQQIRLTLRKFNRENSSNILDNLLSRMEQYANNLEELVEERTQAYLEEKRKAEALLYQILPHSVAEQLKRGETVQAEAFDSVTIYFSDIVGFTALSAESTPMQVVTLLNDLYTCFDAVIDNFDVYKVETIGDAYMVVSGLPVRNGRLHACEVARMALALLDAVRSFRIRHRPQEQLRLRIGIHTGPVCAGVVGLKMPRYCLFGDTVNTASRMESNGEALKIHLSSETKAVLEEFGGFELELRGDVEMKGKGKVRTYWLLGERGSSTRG
T1 sequence (P01160 124-151 partner limits assumed): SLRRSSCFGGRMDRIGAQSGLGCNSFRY
Description: HEK293 GC-A cells were seeded in 48-well plates (1×10^5 cell per well) and cultured overnight to reach 80-90% confluency. The treatment buffer that consists of Hank's Balanced Salt Solution (HBSS), 0.1% BSA, 2 mM HEPES and 0.5 mM 3-isobutyl-1-methylzanthine (IBMX—a non-specific phosphodiesterase inhibitor), was used in all experiments. Compound 3, Compound 1, and Compound 2 acetate salt were dissolved in DMSO and ANP was dissolved in phosphate buffered solution (PBS). On the experimental day, growth media was replaced with treatment buffer and HEK293 GC-A cells were 1) treated with Compound 3, Compound 1 or Compound 2 at doses of 1 or 10 μM (reaching a final concentration of 0).1% DMSO) alone for 5 min at 37° C.: or 2) pretreated with Compound 3, Compound 1 or Compound 2 at doses of 1 or 10 μM (reaching a final concentration of 0.1% DMSO) for 5 min at 37° C., followed by a treatment with ANP (10^-10 M) for additional 10 min at 37° C. HEK293 GC-A cells were also treated with vehicle (0.1% DMSO) which served as a negative control. Then all cells were washed with PBS once and lysed with 0.1M HCl. Intracellular cGMP was measured in the lysate using a commercial cGMP ELISA kit (Enzo Life Sciences, Farmingdale, NY) as instructed by the manufacturer.

| cGMP generation in the presence of ANP (human GC-A; 1 or 10 μM) | cGMP generation in the presence of ANP, Compound 1 compared with Compound 2 (human GC-A; both doses (1 and 10 μM), ANP (10^-10 M)) | cGMP generation, compound alone (human GC-A; 1 or 10 μM, without ANP, vs vehicle) | Compound | plasma cGMP [1] | urinary cGMP [1] | diastolic blood pressure [1] | urinary sodium excretion [1] | urinary volume [1] | systolic blood pressure [1] |
| --- | --- | --- | --- | --- | --- | --- | --- | --- | --- |
| dose response increase | higher | – | CN(C)CCN1CCC[C@H](C(=O)Nc2nc3c(F)cc(F)cc3s2)C1 [Compound 1, (S)-N-(4,6-difluorobenzo[d]thiazol-2-yl)-1-(2-(dimethylamino)ethyl) piperidine-3-carboxamide] | increase | increased | more effective | more effective | more effective | more effective |
| dose response increase | – | – | CN(C)CCN1CCC[C@@H](C(=O)Nc2nc3c(F)cc(F)cc3s2)C1 [Compound 2, (R)-N-(4,6-difluorobenzo[d]thiazol-2-yl)-1-(2-(dimethylamino)ethyl) piperidine-3-carboxamide] | increase | did not increase | – | – | – | – |
| dose dependent increase | – | no effect | CN(C)CCN1CCCC(C(=O)Nc2nc3c(F)cc(F)cc3s2)C1 (racemic) [Compound 3, N-(4,6-difluorobenzo[d]thiazol-2-yl)-1-(2-(dimethylamino)ethyl) piperidine-3-carboxamide] | increase | increase | greater reduction | greater increase | greater increase | greater reduction |
